# Results from US20210228463A1, “COMPOSITION FOR FAT FORMATION INHIBITION AND BODY FAT REDUCTION, CONTAINING HYDRANGENOL AS ACTIVE INGREDIENT” (COSMAX BIO CO., LTD., priority 2019, published 2021).
# Key:
# [1] = Body weight- and fat-reducing effects of WHS in obese mice; assay type: in vivo; conditions: obese mice (HFD)
# Experimental: To analyze in vivo anti-obesity efficacy of WHS, animal models of obesity were first prepared. 8-week-old male C57BL/6N mice (specific-pathogen-free (SPF) grade, 20±2 g, Orient Bio) were set into 7 groups as follows, and 10 mice per each group were tested: as normal control groups, normal mice (con) with no high fat diet and no administration, and obese mice (HFD) with induction of obesity by 30% high fat diet and no administration, and as a positive control group, obese mice with oral administration of orlistat which is an anti-obesity agent. As experimental groups, obese mice with oral administration of WHS of 75 mg/kg, 150 mg/kg, or 300 mg/kg, and normal mice with oral administration of WHS of 300 mg/kg were used. Further, experiments were performed by dividing mice into those which were administered with WHS for 12 weeks at the same time with induction of obesity, and those which were administered with WHS after induction of obesity for 10 weeks. WHS was orally administered for 5 days per week during the administration period. A dark: light cycle was maintained at intervals of 12 hours: 12 hours, and mice were allowed to free access to water. […] In addition, images of a fat distribution and body fat contents of mice of each experimental group were measured by dual-energy X-ray absorptiometry in the last week of the animal test. […]
# [2] = Body weight- and fat-reducing effects of HG in obese mice; assay type: in vivo; conditions: obese mice (HFD); for changes in the body weight: oral administration at the same time with induction of obesity, 5 days per week for 12 weeks, FIG. 13; for body fat (dual-energy X-ray absorptiometry, fat weight): oral administration, 12 weeks, FIGS. 14 and 15
# Experimental: To analyze in vivo anti-obesity efficacy of HG, animal models of obesity were prepared. 8-week-old male C57BL/6N mice (SPF grade, 20±2 g, Orient Bio) were set into 7 groups as follows, and 10 mice per each group were tested: as normal control groups, normal mice (con) with no high fat diet and no administration, and obese mice (HFD) with induction of obesity by 30% high fat diet and no administration, and as a positive control group, obese mice with oral administration of orlistat which is an anti-obesity agent. As experimental groups, obese mice with oral administration of HG of 20 mg/kg, 40 mg/kg, or 80 mg/kg, and normal mice with oral administration of HG of 80 mg/kg were used. Mice were administered with HG at the same time with induction of obesity, and HG was administered for 5 days per week for 12 weeks. A dark: light cycle was maintained at intervals of 12 hours: 12 hours, and mice were allowed to free access to water. An experiment was performed to analyze whether the body weight and fat of mice decreased when HG was administered. […] In addition, images of a fat distribution and body fat contents of mice of each experimental group were measured by dual-energy X-ray absorptiometry in the last week of the animal test. Each mice was sacrificed, and a visceral adipose tissue including epididymal fat was separated and a fat was weighed. The experimental results were tested for a significant difference between groups using a t-test in the Sigma plot statistical program (p#<0.05 vs normal control, p*<0.05, r<0.01, P***<0.001 vs obese group). As a result, it was confirmed that body fat was decreased in the positive control group and the HG-administered group (FIGS. 14 and 15).
# [3] = Effects of HG on liver and kidney (serum GOT, GPT, BUN); assay type: in vivo, mice
# Experimental: (§1) To analyze in vivo anti-obesity efficacy of HG, animal models of obesity were prepared. 8-week-old male C57BL/6N mice (SPF grade, 20±2 g, Orient Bio) were set into 7 groups as follows, and 10 mice per each group were tested: as normal control groups, normal mice (con) with no high fat diet and no administration, and obese mice (HFD) with induction of obesity by 30% high fat diet and no administration, and as a positive control group, obese mice with oral administration of orlistat which is an anti-obesity agent. As experimental groups, obese mice with oral administration of HG of 20 mg/kg, 40 mg/kg, or 80 mg/kg, and normal mice with oral administration of HG of 80 mg/kg were used. Mice were administered with HG at the same time with induction of obesity, and HG was administered for 5 days per week for 12 weeks. A dark: light cycle was maintained at intervals of 12 hours: 12 hours, and mice were allowed to free access to water. To examine whether HG induced liver and kidney damage, glutamic oxalacetic transaminase (GOT), glutamic pyruvate transaminase (GPT), and blood urea nitrogen (BUN) were measured by serum analysis using a biochemical analyzer (AU480 Chemistry Analyzer, Beckman coulter, Calif., USA).
# [4] = Changes of blood triglyceride and blood cholesterol by HG; assay type: in vivo, mice; conditions: blood
# Experimental: as §1, with “analyze the effects of” for “examine whether”, “on blood triglyceride” for “induced liver and kidney damage, glutamic oxalacetic transaminase (GOT), glutamic pyruvate transaminase (GPT),”, “cholesterol, a hematological-biochemical test was performed” for “urea nitrogen (BUN) were measured by serum analysis”
# [5] = serum, obese mice (HFD) + oral orlistat
# [6] = obese mice (HFD) + oral orlistat
# [7] = HG-administered group, Table 4 and FIG. 17
# [8] = obese mice (HFD) + HG 20 mg/kg oral, 12 weeks
# [9] = obese mice (HFD) + HG 40 mg/kg oral, 12 weeks
# [10] = obese mice (HFD) + HG 80 mg/kg oral, 12 weeks
smiles,measurement,setting,value
"CCCCCCCCCCC[C@@H](C[C@@H]1OC(=O)[C@H]1CCCCCC)OC(=O)[C@H](CC(C)C)NC=O [Orlistat, orlistat]",changes in the body weight,"[1]; oral administration at the same time with induction of obesity (12 weeks) or after induction of obesity (10 weeks), FIGS. 4 and 5",body weight-reducing effects were observed
same,"body fat (dual-energy X-ray absorptiometry, fat weight)","[1]; oral administration at the same time with or after induction of obesity, FIGS. 6, 7, 8, and 9",decreased
same,changes in the body weight,[2],body weight-reducing effects were observed
same,"body fat (dual-energy X-ray absorptiometry, fat weight)",[2],decreased
same,BUN,[3]; [5],19.89 mg/dL
same,GOT,[3]; [5],63 U/L
same,GPT,[3]; [5],17.6 U/L
same,CHOL,[4]; [6],115.63 mg/dL
same,HDL,[4]; [6],83.70 mg/dL
same,LDL,[4]; [6],8.60 mg/dL
same,TG,[4]; [6],76.40 mg/dL
"O=C1OC(c2ccc(O)cc2)Cc2cccc(O)c21 (stereo not shown) [HG, 8-hydroxy-3-(4-hydroxyphenyl)-3,4-dihydroisochromen-1-one]",changes in the body weight,[2],body weight-reducing effects were observed
same,"body fat (dual-energy X-ray absorptiometry, fat weight)",[2],decreased
same,"GOT, GPT and BUN, difference between 7 groups","[3]; mouse, in vivo",no significant difference
same,HDL level,"[4]; HG-administered group, Table 4",no significant difference
same,triglyceride level,"[4]; HG-administered group, Table 4",no significant difference
same,LDL,[4]; [7],reduction
same,total cholesterol,[4]; [7],reduction
same,CHOL,[4]; normal mice + HG 80 mg/kg oral,96.20 mg/dL
same,HDL,[4]; normal mice + HG 80 mg/kg oral,66.40 mg/dL
same,LDL,[4]; normal mice + HG 80 mg/kg oral,5.70 mg/dL
same,TG,[4]; normal mice + HG 80 mg/kg oral,80.10 mg/dL
same,CHOL,[4]; [8],126.78 mg/dL
same,HDL,[4]; [8],80.78 mg/dL
same,LDL,[4]; [8],7.78 mg/dL
same,TG,[4]; [8],74.63 mg/dL
same,CHOL,[4]; [9],112.56 mg/dL
same,HDL,[4]; [9],71.89 mg/dL
same,LDL,[4]; [9],7.38 mg/dL
same,TG,[4]; [9],58.89 mg/dL
same,CHOL,[4]; [10],110.14 mg/dL
same,HDL,[4]; [10],71.20 mg/dL
same,LDL,[4]; [10],7.13 mg/dL
same,TG,[4]; [10],63.78 mg/dL
